Bridge positions count the residues as written; N and C are the ends. Ends that are not written are not given here.
What was measured:
[1] = system: MDA-MB-435 tumors; test: In vivo temperature-induced tumor targeting of magnetic nanoworms, MDA-MB-435; parameters: species or system mice; settings: 45° C. for 30 min, 24 hrs post-injection
Protocol: In vivo temperature-induced tumor targeting of magnetic nanoworms. Mice bearing bilateral MDA-MB-435 human carcinoma tumors were intravenously injected with Cy7-labeled LyP1NWs or NWs and one flank of the mouse (containing one of the tumors) was immediately heated at 45° C. for 30 min in a temperature-controlled water bath. At 24 hrs post-injection, the tissues were harvested and the Cy7 fluorescence in tissues were imaged using NIR fluorescence imaging system (LI-COR Odyssey).

[2] = system: C8161 cells; test: In vitro cellular fluorescence imaging with heating, C8161; type: cell-based; settings: 20 min at 45° C. vs 37° C., then 2 hr at 37° C.
Protocol: (§1) In vitro cellular fluorescence imaging. The cells were treated with 80 ug Fe/mL of Cy5.5 labeled control NWs or LyP1NWs per well for 20 min at 37° C. or 45° C. in the presence of 10% FBS and incubated for an additional 2 hr at 37° C. in the presence of 10% FBS. The cells were then rinsed three times with cell medium, fixed, stained, and imaged by fluorescence microscopy.

[3] = system: C8161 tumors; test: In vivo temperature-induced tumor targeting of magnetic nanoworms, C8161; parameters: species or system mice; settings: heated relative to unheated tumors
[4] = system: MDA-MB-435 cells; test: In vitro cellular fluorescence imaging with heating, MDA-MB-435; type: cell-based, human; settings: 20 min at 45° C. vs 37° C., then 2 hr at 37° C.
Protocol: as §1

[5] = system: HT1080 tumors; test: In vivo tumor homing, HT1080 xenograft; parameters: species or system Nude BALB/c mice
Protocol: In vivo tumor homing. MDA-MB-435 human breast carcinoma cells or HT1080 human fibrosarcoma cells (1×10^6) were injected into the mammary fat pad or subcutaneously injected into Nude BALB/c mice, respectively. Tumors were used when they reached ˜0.5 cm in size. Some 0.2 cm or 1 cm tumors were used to compare the dependence of tumor size on NW homing. Cy7-labed or non-labeled NW or NS were intravenously injected into mice (n=3˜8 for each formulation) with a dose of 1 mg Fe/kg body mass (for fluorescence studies) and 3 mg Fe/kg body mass (for magnetization studies). For real-time observation of tumor/liver uptake, animals were imaged under anesthesia in Cy7 channel using the BonSai fluorescence-imaging system (Siemens, Pa., USA) 6 hrs, 24 hrs or 48 hrs after injection. For NIR fluorescence imaging of organs, animals were sacrificed 24 hrs after the injection by cardiac perfusion with PBS under anesthesia, and organs were dissected and imaged in Cy7 channel with a NIR fluorescence scanner (LI-COR biosciences, NE, USA). All the NIR images for animals or organs were taken at the same exposure time. To quantify the amount of NW or NS homing, collected tumors were weighed, freeze-dried in gelatin capsules, and then analyzed for magnetization using SQUID. […] At least three images from representative microscopic fields were analyzed for each tumor sample.

[6] = system: MDA-MB-435 tumors; test: In vivo tumor homing, MDA-MB-435 xenograft; parameters: species or system Nude BALB/c mice; settings: for tumor uptake / targeting efficiency: 24 hrs post-injection
Protocol: In vivo tumor homing. MDA-MB-435 human breast carcinoma cells or HT1080 human fibrosarcoma cells (1×10^6) were injected into the mammary fat pad or subcutaneously injected into Nude BALB/c mice, respectively. Tumors were used when they reached ˜0.5 cm in size. Some 0.2 cm or 1 cm tumors were used to compare the dependence of tumor size on NW homing. Cy7-labed or non-labeled NW or NS were intravenously injected into mice (n=3˜8 for each formulation) with a dose of 1 mg Fe/kg body mass (for fluorescence studies) and 3 mg Fe/kg body mass (for magnetization studies). For real-time observation of tumor/liver uptake, animals were imaged under anesthesia in Cy7 channel using the BonSai fluorescence-imaging system (Siemens, Pa., USA) 6 hrs, 24 hrs or 48 hrs after injection. For NIR fluorescence imaging of organs, animals were sacrificed 24 hrs after the injection by cardiac perfusion with PBS under anesthesia, and organs were dissected and imaged in Cy7 channel with a NIR fluorescence scanner (LI-COR biosciences, NE, USA). All the NIR images for animals or organs were taken at the same exposure time. To quantify the amount of NW or NS homing, collected tumors were weighed, freeze-dried in gelatin capsules, and then analyzed for magnetization using SQUID. For histologic analysis, frozen sections of tumors were prepared. The sections were fixed with 4% paraformaldehyde and stained with DAPI for observation of NW or NS only. The rat anti-mouse CD-31 (1:50, BD PharMingen) and biotinylated mouse fibrin(ogen) antiserum (1:50, Nordic) were used for immunochemicostaining of tumor tissue sections. The corresponding secondary antibodies were added and incubated for 1 hour at room temperature: AlexaFluor-594 goat anti-rat or rabbit IgG (1:1,000; Molecular Probes), streptavidin Alexa Fluor 594 (1:1000; Molecular Probes). The slides were washed three times with PBS and mounted in Vectashield Mounting Medium with DAPI. At least three images from representative microscopic fields were analyzed for each tumor sample.

[7] = Hydrodynamic size by dynamic light scattering; type: physicochemical; settings: Table 1
Excerpt: The nanostructure appears as linearly aggregated IO cores with a mean hydrodynamic size (in the long dimension) of 65 nm (FIG. 1a and Table 2). When a higher molecular mass dextran (40 kDa) was used branched IO cores were obtained, with a larger average size (˜100 nm) and a broader size distribution (FIG. 5). […] NW show a slightly larger saturation magnetization value (74.2 emu/gFe vs. 61.5 emu/gFe and 53.5 emu/gFe) and a higher MR contrast (R2=116 mMFe^−1S^−1 vs R2=70 mMFe^−1S^−1 and R2=95 mMFe^−1S^−1) than NS and Feridex (FIG. 1b). […]
Blood half-life and biodistribution. To quantify the in vivo circulation times of NW or NS samples in Nude BALB/c mice (n=3-4 for each formulation), heparinized capillary tubes (Fisher) were used to draw 15 μL (for fluorescence) or 70 μl (for magnetization) of blood from the periorbital plexus at different times after intravenous injection of the NW or NS samples (1, 3, or 10 mg Fe/kg body mass). […] For Cy7-labeled NW or NS formulations, blood extracted at different times was imaged in a 96-well plate in Cy7 channel (762 nm excitation/800 nm emission) with a NIR fluorescence scanner (LI-COR biosciences, NE, USA). The images were analyzed using the ImageJ (NIH) or Osirix (Apple) programs. […] Organs and blood were immediately weighed, freeze-dried in gelatin capsules, and then analyzed for magnetization using SQUID.

[8] = target: T1, p32 or gC1qR receptor (human, UniProt Q07021 74-282); test: fluorescence microscopy of MDA-MB-435 cells, colocalization with anti-p32 stain
T1 construct: whole, on cells; Endogenous p32 on MDA-MB-435 cells and tumors, stained with an anti-p32 antibody; also called p32 receptors
T1 sequence (looked up): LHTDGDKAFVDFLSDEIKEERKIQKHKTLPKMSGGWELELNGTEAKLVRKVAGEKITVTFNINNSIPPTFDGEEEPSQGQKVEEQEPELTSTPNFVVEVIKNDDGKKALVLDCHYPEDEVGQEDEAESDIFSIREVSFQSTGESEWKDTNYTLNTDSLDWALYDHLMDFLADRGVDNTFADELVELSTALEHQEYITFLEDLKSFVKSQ

[9] = compared with the other samples

With “LyP1NWs: LyP-1 peptide attached to Cy5.5-labeled aminated NWs via PEG crosslinker, ~40 peptides per nanoworm (CGNKRTRGC; disulfide 1-9 (inferred); not fully specified; printed as Cys-Gly-Asn-Lys-Arg-Thr-Arg-Gly-Cys; also: extra Cys added for conjugation, position not given here)” the “targeting to heated tumors” value [1] was “prominent relative to unheated tumors”, the “binding and internalization upon heating” value [2] was “lower heat-mediated internalization” and the “homing to heated tumors” value [3] was “not significantly different”. The “binding and internalization upon heating” value [4] was “Significant quantities”.

With “NW-P175-C: NW with 175 amines to which CREKA is conjugated through a PEG spacer, 60 peptides (not fully specified; also: CREKA conjugated through PEG spacer to nanoworm with 175 amines, 60 peptides (attachment site not given here))” the “tumor uptake / targeting efficiency” value ([5]; 24 hrs post-injection) was “best”, the “tumor:liver ratio (NIR fluorescence)” value [5, 9] was “significant increases” and the “tumor uptake / targeting efficiency” value [6] was “significantly higher levels of uptake”. The “tumor uptake / targeting efficiency” value ([6]; listed as NW-P-175-C) was “best”, the “tumor:liver ratio (NIR fluorescence)” value [6, 9] was “significant increases” and the “Size [nm] (mean hydrodynamic size)” value [7] was 85.0 nm.

With “NW-P-C: PEGylated CREKA-conjugated NW (family; ~60 CREKA peptides in the comparison) (not fully specified; also: CREKA conjugated via PEG to nanoworms (attachment site not given here))” the “tumor uptake / targeting efficiency” value [6] was “significantly greater”.

B1: LyP-1 peptide-conjugated magnetic nanoworms (LyP1NWs) (peptide)
peptide: CGNKRTRGC
modifications: disulfide 1-9 (inferred); not fully specified; printed as Cys-Gly-Asn-Lys-Arg-Thr-Arg-Gly-Cys; also: peptide is cyclic, conjugated via PEG crosslinker to Cy5.5-labeled dextran iron oxide nanoworm, extra Cys added for conjugation, position not given here
notes: also called Lyp1-conjugated Cy5.5-labeled magnetic nanoworms; LyP1-conjugated NWs
B1: binds [8].
